This note sets out measurements from article PMC12422182 (Science Advances, 2025).

The target of experiment [1] is OBP13. Put plainly: fluorescence titration, Scatchard analysis. In kind it is binding, Locusta migratoria.
For experiment [2], the target named is OBP13. Put plainly: competitive fluorescence binding assay. More on the design: species or system Locusta migratoria.
A further experiment addresses Clvs2. Put plainly: microscale thermophoresis. In kind it is binding, Locusta migratoria.

Consider `c1ccc(Nc2cccc3ccccc23)cc1` [1-NPN, N-phenyl-1-naphthylamine], for which binding on OBP13 [1] was characterised by a dissociation constant (Kd) of 13.8 µM. `C=Cc1ccc(OC)cc1` [4VA, 4-vinylanisole]: at OBP13 [2], the Ki was determined as 3.46 µM. Regarding “phosphatidylinositol 4,5-bisphosphate [PI(4,5)P2]”, on Clvs2, binding was put at a Kd of 5.86 ± 0.59 µM.
